Literature values, collected in US20110052686A1, “MODIFIED RELEASE LAMOTRIGINE TABLETS” (RANBAXY LABORATORIES LIMITED, priority 2009, published 2011).

Conditions: oral administration

effect of food on bioavailability: not affected by food | first-pass metabolism: negligible first-pass metabolism | time of peak plasma concentrations following drug administration: 1.4 to 4.8 h
SMILES: Nc1nnc(-c2cccc(Cl)c2Cl)c(N)n1 [Lamotrigine, 3,5-diamino-6-(2,3-dichlorophenyl)-1,2,4-triazine]
